# Experimental data: ChEMBL document CHEMBL1201862, “PubChem BioAssay data set” (2004)
# Activity calls are given as the source filed them.
# Legend:
# Beta-lactamase [1] = molecular target: T1, Beta-lactamase (Pseudomonas aeruginosa, UniProt Q79MP6); assay: […] counterscreen for selective VIM-2 inhibitors: dose response biochemical high throughput screening assay to identify inhibitors of IMP-1 metallo-beta-lactamase.
# Beta-lactamase [2] = molecular target: T1, Beta-lactamase; assay: inhibition of IMP-1 beta-lactamase activity – biochemical, epi-absorbance, selectivity assay for VIM-2 inhibitor project, dose response (AID 1920)
# Beta-lactamase [3] = molecular target: Beta-lactamase (Salmonella choleraesuis (strain SC-B67), UniProt Q5J463); assay: Epi-absorbance-based counterscreen for selective VIM-2 inhibitors: dose response biochemical high throughput screening assay to identify inhibitors of TEM-1 serine-beta-lactamase.
# Major prion protein = Major prion protein (Homo sapiens, UniProt P04156); format: functional, cell-based
# [4] = molecular target: Matrix metalloproteinase-14 (Homo sapiens, UniProt P50281); assay: Dose Response confirmation of uHTS hits for a small molecule inhibitors of MT1-MMP activation in a fluorescence assay set 1.; format: functional
# Protein skinhead-1 = molecular target: T2, Protein skinhead-1 (Caenorhabditis elegans, UniProt P34707); format: functional
# T2 sequence (P34707 whole entry): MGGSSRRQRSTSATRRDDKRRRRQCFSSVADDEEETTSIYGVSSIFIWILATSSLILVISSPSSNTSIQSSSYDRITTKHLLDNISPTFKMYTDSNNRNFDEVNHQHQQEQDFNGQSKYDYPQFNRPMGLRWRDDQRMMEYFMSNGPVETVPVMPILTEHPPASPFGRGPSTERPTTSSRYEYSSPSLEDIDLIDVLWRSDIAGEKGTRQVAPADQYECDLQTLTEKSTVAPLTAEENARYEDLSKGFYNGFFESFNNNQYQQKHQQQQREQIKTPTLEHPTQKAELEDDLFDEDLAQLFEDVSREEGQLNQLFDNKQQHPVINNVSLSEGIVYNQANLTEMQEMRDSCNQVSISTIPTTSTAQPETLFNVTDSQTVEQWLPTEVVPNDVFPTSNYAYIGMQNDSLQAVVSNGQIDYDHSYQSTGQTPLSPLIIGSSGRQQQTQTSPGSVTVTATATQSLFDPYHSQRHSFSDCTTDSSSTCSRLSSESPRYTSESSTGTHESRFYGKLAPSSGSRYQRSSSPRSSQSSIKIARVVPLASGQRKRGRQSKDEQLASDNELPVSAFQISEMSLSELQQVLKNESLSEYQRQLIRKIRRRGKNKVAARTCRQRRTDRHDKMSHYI
# Genome polyprotein = Genome polyprotein (dengue virus type 2, UniProt P29990); assay: flavivirus cap methylation enzyme inhibition – biochemical, confirmation dose response, primary screen (AID 588689); format: functional
# [5] = molecular target: Polyadenylate-binding protein 1 (Homo sapiens, UniProt P11940); assay: blockers of PABP interaction with poly(A) – biochemical, fluorescence polarization, […] (AID 2014)
# [6] = molecular target: Eukaryotic translation initiation factor 4H (Homo sapiens, UniProt Q15056); assay: eIF4H binding inhibition – biochemical, uHTS, fluorescence polarization, translation initiation inhibitor project, primary screen (AID 2012)
# Nonstructural protein 1 = Nonstructural protein 1 (Influenza A virus, UniProt Q194T2); format: functional, Influenza A virus (A/California/07/2009(H1N1))
# [7] = viability loss in HeLa cells – cytotoxicity control for MgcRacGAP inhibitor project, dose response (AID 624300); format: functional
# [8] = molecular target: T3, Rac GTPase-activating protein 1 (Homo sapiens, UniProt Q9H0H5); assay: blockers of MgcRacGAP-driven Rac1 GTP hydrolysis – biochemical, ADP Hunter fluorescence, primary and confirmatory, confirmation (AID 624330); format: functional
# T3 sequence (Q9H0H5 whole entry): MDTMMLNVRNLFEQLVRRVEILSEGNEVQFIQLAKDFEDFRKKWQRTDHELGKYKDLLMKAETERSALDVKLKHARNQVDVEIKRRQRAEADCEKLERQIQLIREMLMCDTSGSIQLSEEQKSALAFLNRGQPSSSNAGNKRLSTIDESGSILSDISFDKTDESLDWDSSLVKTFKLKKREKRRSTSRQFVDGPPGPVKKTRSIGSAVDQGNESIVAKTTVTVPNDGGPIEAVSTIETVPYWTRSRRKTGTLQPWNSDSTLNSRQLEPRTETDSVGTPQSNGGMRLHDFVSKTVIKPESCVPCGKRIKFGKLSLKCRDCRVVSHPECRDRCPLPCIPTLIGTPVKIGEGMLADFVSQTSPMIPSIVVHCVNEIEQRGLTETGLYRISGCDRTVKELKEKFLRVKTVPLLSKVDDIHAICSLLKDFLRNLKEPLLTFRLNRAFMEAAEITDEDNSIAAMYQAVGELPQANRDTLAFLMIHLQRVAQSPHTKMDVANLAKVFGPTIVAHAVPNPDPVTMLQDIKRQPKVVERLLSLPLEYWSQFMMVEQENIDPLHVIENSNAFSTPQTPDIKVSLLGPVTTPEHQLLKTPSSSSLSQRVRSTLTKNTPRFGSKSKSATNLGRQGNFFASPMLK
# [9] = molecular target: Tyrosyl-DNA phosphodiesterase 2 (Homo sapiens, UniProt O95551); assay: potency against TDP2 phosphodiesterase activity – biochemical, epi absorbance, IC50, dose response (AID 743297)
# [10] = molecular target: Histone-lysine N-methyltransferase NSD2 (Homo sapiens, UniProt O96028); format: biochemical
# [11] = viability loss in human hepatoma cells – cell-based, CellTiter-Glo luminescence, cherry-pick, set 2, cytotoxicity control, dose response (AID 743395); format: functional
# [12] = general mammalian cell viability loss – activator set, cherry-pick, cytotoxicity control for miR-122 modulator project, dose response (AID 720690); format: functional, cell-based;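 further: HEK293T human cells scored for general mammalian cytotoxicity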
# [13] = activation of miR-122 Renilla sensor silencing – cell-based, Huh7 psiCHECK-miR122, Renilla luciferase, cherry-picked, dose response (AID 651956); format: functional;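 further: huh7 hepatoma cells stably carrying a psiCHECK-2 miR-122 sensor plasmid; renilla luciferase signal reporting endogenous miR-122 activity after 48 h compound exposure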
# [14] = toxicity to human hepatoma HepG2 cells – cell-based, cherry-picked samples, cytotoxicity control, dose response (AID 1159577); format: functional
# Paired box protein Pax-8 = Paired box protein Pax-8 (Homo sapiens, UniProt Q06710); assay: PAX8 transcriptional activity inhibition in RMG-I – RMG-I cells, luciferase, cherry-pick, dose response (AID 687027); format: functional, cell-based;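 further: luciferase reporter driven by Pax8 target thyroperoxidase promoter measured by SteadyGlo luminescence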
# [15] = OVCAR-3 cell viability loss – plate reader, dry powder samples, PAX8 inhibitor project, dose response (AID 743044); format: functional, cell-based
# [16] = reduced cellular PGC1a acetyl-lysine signal – cell-based, cherry-picked samples, dose response (AID 720514); format: functional;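 further: potency may reflect raised or lowered acetylation signal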
# [17] = general cell-killing toxicity readout – plate reader, dry powder samples, cytotoxicity control for PAX8 inhibitor project, dose response (AID 743021); format: functional, cell-based
# [18] = P. falciparum Dd2 growth inhibitors, dose response, SYBR Green, cherry-picked samples (AID 1159567); format: functional, cell-based
# [19] = toxicity toward immortalized ovarian surface epithelium – cell-based, plate reader, dry powder samples, cytotoxicity control for PAX8 inhibitor project, dose response (AID 743045); format: functional
# [20] = OVCAR8 cell viability loss – plate reader, dry powder samples, PAX8 project, dose response (AID 743197); format: functional, cell-based; settings: OVCAR-8
# [21] = IGROV1 cell killing – plate reader, dry powder samples, PAX8 inhibitor project, dose response (AID 743043); format: functional, cell-based; settings: IGROV-1
# HeLa = assay: viability loss in HeLa cells – cell-based, ATP luminescence, cherry-pick samples, cytotoxicity control, dose response (AID 687004); format: functional; settings: Homo sapiens
# [22] = HEK293 Cytotoxicity Assay Measured in Cell-Based System Using Plate Reader - 7071-01_Inhibitor_Dose_CherryPick_Activity_Set2.; format: functional
# HEK293 = assay: viability loss in HEK293T cells – cell-based, ATP luminescence, cherry-pick samples, cytotoxicity control, dose response (AID 687005); format: functional; settings: Homo sapiens;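 further: cells exposed to compound for 48 hours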
# [23] = LMP1-induced NF-kB luciferase signal inhibition – cell-based, EBV LMP1, dry powder, set 2, dose response (AID 624361); format: functional
# [24] = TNFa-induced NF-kB reporter signal decrease – HEK293 LMP1 reporter cells, dry powder, set 2, selectivity assay for EBV LMP1 NF-kB inhibitor project, dose response (AID 624369); format: functional
# A549 = assay: viability loss in A549 cells – cell-based, plate reader, cherry-pick samples, cytotoxicity control, dose response (AID 687028); format: functional; settings: Homo sapiens
# [25] = blockers of FN fibrillogenesis by fibroblasts – AH1F cells, Alexa488-FN fluorescence, cherry-picks, dose response (AID 1035475); format: functional, cell-based
# [26] = viability loss in HEK293 kidney cells – cell-based, cherry-picks, set 5, cytotoxicity control, dose response (AID 1053117); format: functional
# [27] = viability loss in HepG2 hepatoma cells – cell-based, cherry-picks, set 5, cytotoxicity control, dose response (AID 1053118); format: functional
# [28] = general mammalian cell viability loss – inhibitor set, cherry-pick, set 2, cytotoxicity control for miR-122 modulator project, dose response (AID 720697); format: functional, cell-based
# Protein Wnt-3a = Protein Wnt-3a (Mus musculus, UniProt P27467); assay: SAR analysis of small molecule antagonists of Gli-SUFU in a Wnt3a luminescent reporter assay.; format: functional
# [29] = molecular target: 5-hydroxytryptamine receptor 2A (Mus musculus, UniProt P35363); format: functional, cell-based;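 further: CHO-K1 cells with tagged receptor and beta-arrestin; agonist potency measured as compound-induced activation of the receptor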
# Mu-type opioid receptor = Mu-type opioid receptor (Homo sapiens, UniProt P35372); format: functional, cell-based;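 further: U2OS cells with beta-arrestin recruitment to OPRM1 by beta-gal complementation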
smiles,measurement,setting,value
CCCCc1cc(=O)oc2c3c(cc(OCC(=O)N4CCC[C@H]4C(=O)O)c12)OC(C)(C)CC3,IC50,Beta-lactamase [1],> 59.6 µM (inactive)
same,IC50,Beta-lactamase [2],> 59.6 µM (inactive)
same,IC50,Beta-lactamase [3],> 59.6 µM (inactive)
Fc1cccc2sc(Nc3nc4c(F)cccc4s3)nc12,IC50,Major prion protein,8.31 µM (active)
same,IC50,cells,> 138 µM (inactive)
CC1=C/C(=C(/c2cc(C)c(O)c(Br)c2)c2ccccc2S(=O)(=O)O)C=C(Br)C1=O,IC50,[4],18.5 µM (active)
same,IC50,Protein skinhead-1,34.3 µM (active)
same,IC50,Genome polyprotein,38 µM (active)
same,IC50,[5],6.81 µM (active)
same,IC50,[6],8.28 µM (active)
same,IC50,Nonstructural protein 1,16.3 µM (active)
same,CC50,[7],100 µM (active)
same,IC50,[8],63.5 µM (active)
O=C1C=C(O)c2nc(O)ccc2C1=O,IC50,[9],80 µM (inactive)
same,AC50,[10],13.1 µM (active)
COc1cc(NC(=O)c2csc(N)n2)cc(C(=O)Nc2cccc(C(F)(F)F)c2)c1.O=C(O)C(F)(F)F,AbsAC35_uM,[11],51.31 µM
CCC(=O)N(C)C[C@H]1Oc2cc(C#Cc3ccccc3)ccc2S(=O)(=O)N([C@H](C)CO)C[C@H]1C,AC50,[12],30.6 µM (active)
same,AC50,[13],10.1 µM (active)
Cc1cccc(-c2ccc([C@H]3[C@@H]4CN(C(=O)Nc5ccc(C(F)(F)F)cc5)C[C@H]3N4)cc2)c1,AC50,[14],9.26 µM (active)
same,AC50,Paired box protein Pax-8,8.8 µM (active)
same,AC50,[15],18.8 µM (active)
same,AC50,[16],4.51 µM (active)
same,AC50,[17],22.9 µM (active)
same,AC50,[18],3.28 µM (active)
same,AC50,[19],17 µM (active)
same,AC50,[20],25.6 µM (active)
same,AC50,[21],33.2 µM (active)
C[C@@H]1CN([C@@H](C)CO)S(=O)(=O)c2ccc(-c3ccccc3)cc2O[C@H]1CN(C)C(=O)C1CCCCC1,AC50,HeLa,> 52 µM (inactive)
same,AC50,[22],15.4 µM (active)
same,AC50,HEK293,15.4 µM (active)
Cc1cc(C(=O)Nc2ccc3c(c2)C(=O)N(C)[C@H]2CC[C@H](CC(=O)NCc4ccc(-c5ccccc5)cc4)O[C@H]2CO3)no1,AbsAC35,[23],37.95 µM
same,AbsAC35,[24],62.14 µM
C[C@H](CO)N1C[C@H](C)[C@@H](CN(C)C(=O)Nc2ccc(C(F)(F)F)cc2)OCCCC[C@H](C)Oc2ccc(NC(=O)C3CCCCC3)cc2C1=O,AC50,A549,30.5 µM (active)
CN1c2ccc(-c3ccccc3)cc2[C@H]2[C@H](CCN2C(=O)CN2CCOCC2)[C@@H]1CO,AC50,[25],> 70 µM (inactive)
same,AC50,[26],> 52 µM (inactive)
CO[C@@H]1CN(C)C(=O)c2ccc(NC(=O)c3ccc(-c4ccccc4)cc3)cc2OC[C@@H](C)NC[C@@H]1C,AC50,[14],11.9 µM (active)
same,AC50,[18],3.9 µM (active)
same,AC50,[27],> 52 µM (inactive)
CN(C)C(=O)C[C@@H]1CC[C@@H]2[C@@H](COc3ccc(NC(=O)C4CC4)cc3C(=O)N2C)O1,AC50,[28],9.22 µM (active)
CN(C)c1cc(NC(=O)c2ccccc2F)ncn1,IC50,Protein Wnt-3a,> 21.8 µM (inactive)
Cc1ccccc1C(=O)O/N=C(\c1ccccc1)c1ccccn1,EC50,[29],20.2 µM (inactive)
same,EC50,Mu-type opioid receptor,92.5 µM (inactive)
